# Test results as given in patent US20180194762A1 (Pharmacyclics LLC, priority 2017, published 2018).
# pIC50: −log10 of the molar value. Where two headings read alike, the source gives them in different places.
# Assays:
# Format in all cases: biochemical
# panel of kinases = molecular target: T1, panel of kinases (Homo sapiens, UniProt P51813); assay: Inhibition of a panel of kinases (in vitro HotSpot kinase assay, 33P-ATP, 1 μM ATP), other kinases; conditions: BMX wild-type, read-out: BMX-WT IC50
# T1 sequence (P51813 1-675): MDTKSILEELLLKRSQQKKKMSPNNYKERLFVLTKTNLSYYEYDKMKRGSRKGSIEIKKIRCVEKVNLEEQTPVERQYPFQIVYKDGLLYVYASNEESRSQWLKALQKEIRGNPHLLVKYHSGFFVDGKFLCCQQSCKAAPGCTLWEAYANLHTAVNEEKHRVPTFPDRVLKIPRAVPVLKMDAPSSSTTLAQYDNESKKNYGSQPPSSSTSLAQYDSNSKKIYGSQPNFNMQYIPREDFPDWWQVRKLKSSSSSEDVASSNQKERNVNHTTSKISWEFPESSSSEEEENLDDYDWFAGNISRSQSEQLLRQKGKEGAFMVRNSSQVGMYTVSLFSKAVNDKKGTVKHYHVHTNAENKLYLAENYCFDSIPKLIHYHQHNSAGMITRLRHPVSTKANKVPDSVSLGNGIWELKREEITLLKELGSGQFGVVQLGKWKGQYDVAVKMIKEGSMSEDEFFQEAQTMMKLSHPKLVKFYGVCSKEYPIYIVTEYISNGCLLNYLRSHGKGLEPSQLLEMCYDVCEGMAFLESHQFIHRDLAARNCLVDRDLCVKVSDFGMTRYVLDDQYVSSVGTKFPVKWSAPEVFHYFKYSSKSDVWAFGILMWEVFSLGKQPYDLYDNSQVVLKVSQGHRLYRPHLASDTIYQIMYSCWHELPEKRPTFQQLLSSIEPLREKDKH
# Protocol: (§1) Example 63: Inhibition of a Panel of Kinases The degree of inhibition of a panel of kinases is determined using the in vitro HotSpot kinase assay (purified enzymes, ^33P-ATP, an appropriate substrate and 1 μM ATP).
# Btk = molecular target: T2, Btk (Homo sapiens, UniProt Q06187); assay: Btk in vitro inhibitory activity (one of Method A TR-FRET, Method B electrophoretic mobility shift, Method C radiometric filter binding)
# T2 construct: purified from insect cells as a full-length construct containing a N-terminal 6X-His tag; His6 (N); made in house; host or cells: insect cells (Method C)
# Protocol: Example 62a: Btk In Vitro Inhibitory Activity (Method A)
# Btk kinase activity is determined using a time-resolved fluorescence resonance energy transfer (TR-FRET) methodology. Measurements are performed in a reaction volume of 50 μL using 96-well assay plates. […] The reaction is quenched by the addition of 1.2 equivalents of EDTA (relative to divalent cation) in 25 μL of 1× Lance buffer (Perkin-Elmer). Streptavidin-APC (Perkin-Elmer) and Eu-labeled p-Tyr100 antibody (Perkin-Elmer) in 1× Lance buffer are added in a 25 μL volume to give final concentrations of 100 nM and 2.5 nM, respectively, and the mixture is allowed to incubate for one hour. The TR-FRET signal is measured on a multimode plate reader with an excitation wavelength (λEx) of 330 nm and detection wavelengths (λEm) of 615 and 665 nm. Activity is determined by the ratio of the fluorescence at 665 nm to that at 615 nm. For each compound, enzyme activity is measured at various concentrations of compound. Negative control reactions are performed in the absence of inhibitor in replicates of six, and two no-enzyme controls are used to determine baseline fluorescence levels. Inhibition constants, Ki(app), were obtained using the program BatchKi (Kuzmic et al. (2000), Anal. Biochem. 286:45-50). IC50s are obtained according to the equation:
# IC50={Ki(app)/(1+[ATP]/Km^ATP)}+[E]total/2;
# For all kinases, [ATP]=Km^ATP, [Btk]total=0.5 nM and [Lck]total=6 nM.
# Example 62b: Btk In Vitro Inhibitory Activity (Method B)
# Kinase activity is measured in vitro using electrophoretic mobility shift assay. The kinase reactions are assembled in a total volume of 25 μL in 384 well plates. The reactions comprise: BTK enzyme (1 nM, N-terminal His6-tagged, recombinant, full-length, human BTK purified from baculovirus Sf21 insect cell system, 293HEK, or other suitable source), inhibitor, ATP, fluorescently labeled peptide substrate (1 μM, FAM-GEEPLYWSFPAKKK-NH2) in a reaction buffer composed of 100 mM HEPES, pH7.5, 5 mM MgCl2 1 mM DTT, 0.1% bovine serum albumin, 0.01% Triton X-100, and 1% DMSO. The reaction is incubated and is quenched by the addition of termination buffer (100 mM HEPES, pH 7.5, 0.01% Triton X-100, 30 mM EDTA). The terminated reactions are analyzed using a 12 channel LabChip® 3000 microfluidic detection instrument (Caliper Life Sciences). The enzymatic phosphorylation of the peptide results in a change in net charge, enabling electrophoretic separation of product from substrate peptide. As substrate and product peptides are separated, two peaks of fluorescence are observed. Change in the relative fluorescence intensity of the substrate and product peaks is the parameter measured, reflecting enzyme activity. In the presence of an inhibitor, the ratio between product and substrate is altered: the signal of the product decreases, while the signal of the substrate increases.
# Activity in each sample is determined as the product to sum ratio (PSR):P/(S+P), where P is the peak height of the product peptide and S is the peak height of the substrate peptide. For each compound, enzyme activity is measured at various concentrations (12 concentrations of compound spaced by 3× dilution intervals). Negative control samples (0%—inhibition in the absence of inhibitor) and positive control samples (100%—inhibition, in the presence of 20 mM EDTA) are assembled in replicates of four and are used to calculate %—inhibition values for each inhibitor at each concentration. Percent inhibition (Pinh) is determined using following equation:
# Pinh=(PSR0%−PSRinh)/(PSR0%−PSR100%)*100, where PSRinh is the product sum ratio in the presence of inhibitor, PSR0% is the average product sum ration in the absence of inhibitor and PSR100% is the average product sum ratio in 100%—inhibition control samples.
# The IC50 values of inhibitors are determined by 4 parameter sigmoidal dose-response model fitting of the inhibition curves (Pinh versus inhibitor concentration) using XLfit 4 software. […]
# TEC = molecular target: T3, TEC (Homo sapiens, UniProt P42680); assay: Inhibition of a panel of kinases (in vitro HotSpot kinase assay, 33P-ATP, 1 μM ATP); conditions: for pIC50: HotSpot kinase assay, 1 μM ATP; for TEC/Btk: ratio of TEC IC50 to Btk IC50 (selectivity)
# T3 sequence (P42680 1-631): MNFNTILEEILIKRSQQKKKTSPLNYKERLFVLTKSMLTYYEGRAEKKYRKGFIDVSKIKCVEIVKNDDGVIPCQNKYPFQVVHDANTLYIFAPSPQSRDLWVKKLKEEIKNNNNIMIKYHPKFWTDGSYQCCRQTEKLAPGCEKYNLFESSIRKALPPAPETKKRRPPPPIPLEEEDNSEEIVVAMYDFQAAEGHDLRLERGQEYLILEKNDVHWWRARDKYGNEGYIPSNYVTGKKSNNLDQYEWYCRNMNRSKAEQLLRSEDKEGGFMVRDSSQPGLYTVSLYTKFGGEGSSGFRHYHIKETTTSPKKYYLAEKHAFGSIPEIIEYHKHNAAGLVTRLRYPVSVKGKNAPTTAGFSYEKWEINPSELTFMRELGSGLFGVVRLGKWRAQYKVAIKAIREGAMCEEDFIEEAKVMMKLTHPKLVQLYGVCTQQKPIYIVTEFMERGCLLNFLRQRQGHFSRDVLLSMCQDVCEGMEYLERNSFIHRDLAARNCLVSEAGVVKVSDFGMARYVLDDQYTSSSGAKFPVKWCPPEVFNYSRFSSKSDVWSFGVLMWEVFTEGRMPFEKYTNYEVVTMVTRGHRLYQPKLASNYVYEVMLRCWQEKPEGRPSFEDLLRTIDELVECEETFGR
# Protocol: as §1
# [1] = wild-type Btk, read-out: Btk-WT IC50
# T2 sequence (Q06187 whole entry): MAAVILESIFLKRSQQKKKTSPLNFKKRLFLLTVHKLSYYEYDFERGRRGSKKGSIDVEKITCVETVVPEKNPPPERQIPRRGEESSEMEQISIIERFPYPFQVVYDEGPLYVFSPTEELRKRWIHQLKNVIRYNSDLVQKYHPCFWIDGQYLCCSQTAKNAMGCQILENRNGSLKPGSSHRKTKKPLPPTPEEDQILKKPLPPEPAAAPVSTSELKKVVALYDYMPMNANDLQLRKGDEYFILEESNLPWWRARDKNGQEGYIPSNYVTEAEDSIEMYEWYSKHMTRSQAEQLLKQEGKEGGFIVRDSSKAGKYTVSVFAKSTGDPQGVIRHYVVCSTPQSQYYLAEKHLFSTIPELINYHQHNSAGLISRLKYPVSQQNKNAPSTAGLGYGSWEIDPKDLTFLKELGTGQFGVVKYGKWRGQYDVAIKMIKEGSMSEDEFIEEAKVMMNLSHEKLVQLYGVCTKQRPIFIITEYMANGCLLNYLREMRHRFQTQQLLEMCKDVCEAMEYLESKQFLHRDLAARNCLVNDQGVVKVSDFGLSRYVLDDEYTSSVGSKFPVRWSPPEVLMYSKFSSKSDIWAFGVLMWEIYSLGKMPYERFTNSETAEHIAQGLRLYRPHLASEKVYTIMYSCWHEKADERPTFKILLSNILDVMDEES
SMILES,pIC50 (panel of kinases),pIC50 (Btk; [1]),pIC50 (TEC),TEC/Btk (TEC),"pIC50 (Btk; method is one of A, B or C, not stated which, read-out: IC50 values against Btk)"
"C[C@@H]1[C@H](Nc2n[nH]c3nccc(-c4ccc(CNC(=O)c5noc(C(C)(C)C)n5)c(F)c4)c23)CCCN1C(=O)CC#N [Example 139, 5-tert-butyl-N-{[4-(3-{[(2R,3R)-1-(2-cyanoacetyl)-2-methylpiperidin-3-yl]amino}-1H-pyrazolo[3,4-b]pyridin-4-yl)-2-fluorophenyl]methyl}-1,2,4-oxadiazole-3-carboxamide]",–,7.33,5.24,124,–
"C[C@@H]1[C@H](Nc2n[nH]c3nccc(-c4ccc(CNC(=O)c5noc(C(C)(C)C)n5)c(F)c4)c23)CCCN1S(=O)(=O)C1CC1 [Example 141, 5-tert-butyl-N-{[4-(3-{[(2R,3R)-1-(cyclopropanesulfonyl)-2-methylpiperidin-3-yl]amino}-1H-pyrazolo[3,4-b]pyridin-4-yl)-2-fluorophenyl]methyl}-1,2,4-oxadiazole-3-carboxamide]",–,7.52,5.52,102,–
"CC(C)(C)c1nc(C(=O)NC2(c3ccc(-c4ccnc5[nH]nc(NC6CCCN(C=O)C6)c45)cc3)CC2)no1 (centres unmarked) [Example 271, 5-tert-butyl-N-[1-(4-{3-[(1-formylpiperidin-3-yl)amino]-1H-pyrazolo[3,4-b]pyridin-4-yl}phenyl)cyclopropyl]-1,2,4-oxadiazole-3-carboxamide]",–,6.95,5.23,053,–
"CC(C)(C)c1ccc(C(=O)NCc2ccc(-c3ccnc4[nH]nc(N[C@H]5CCN(C=O)C5)c34)cc2F)cc1 [Example 61, 4-tert-butyl-N-{[2-fluoro-4-(3-{[(3S)-1-formylpyrrolidin-3-yl]amino}-1H-pyrazolo[3,4-b]pyridin-4-yl)phenyl]methyl}benzamide]",–,7.47,5.23,174,–
"C[C@H](NC(=O)c1ccc(C(C)(C)C)cc1)c1ccc(-c2ccnc3[nH]nc(N[C@@H]4CCNC4)c23)cc1 [Example 91, 4-tert-butyl-N-[(1S)-1-[4-(3-{[(3R)-pyrrolidin-3-yl]amino}-1H-pyrazolo[3,4-b]pyridin-4-yl)phenyl]ethyl]benzamide]",–,< 5.00,< 5.00,–,–
"C[C@@H](NC(=O)c1noc(C(C)(C)C)n1)c1ccc(-c2ccnc3[nH]nc(N[C@@H]4CCN(C=O)C4)c23)cc1 [Example 99, 5-tert-butyl-N-[(1R)-1-[4-(3-{[(3R)-1-formylpyrrolidin-3-yl]amino}-1H-pyrazolo[3,4-b]pyridin-4-yl)phenyl]ethyl]-1,2,4-oxadiazole-3-carboxamide]",–,8.35,5.84,321,> 8.00
"CC(C)(C)c1ccc2c(c1)CCN(Cc1ccc(-c3ccnc4[nH]nc(N[C@@H]5CCN(C=O)C5)c34)cc1F)C2=O [Compound 60, (3R)-3-[(4-{4-[(6-tert-butyl-1-oxo-1,2,3,4-tetrahydroisoquinolin-2-yl)methyl]-3-fluorophenyl}-1H-pyrazolo[3,4-b]pyridin-3-yl)amino]pyrrolidine-1-carbaldehyde]",–,7.68,5.13,–,–
"C[C@@H]1[C@H](Nc2n[nH]c3nccc(-c4ccc(CNC(=O)c5noc(C(C)(C)C)n5)c(F)c4)c23)CCCN1C(=O)NCC(F)(F)F [Example 137, (2R,3R)-3-{[4-(4-{[(5-tert-butyl-1,2,4-oxadiazol-3-yl)formamido]methyl}-3-fluorophenyl)-1H-pyrazolo[3,4-b]pyridin-3-yl]amino}-2-methyl-N-(2,2,2-trifluoroethyl)piperidine-1-carboxamide]",–,< 5.00,< 5.00,–,–

# The remaining lines, values ahead:
pIC50 (panel of kinases),pIC50 (Btk; [1]),pIC50 (TEC),TEC/Btk (TEC),"pIC50 (Btk; method is one of A, B or C, not stated which, read-out: IC50 values against Btk)",SMILES
5.25,–,–,–,–,"O=C(NCc1ccc(-c2ccnc3[nH]nc(N[C@@H]4CCNC4)c23)cc1F)c1cc(-c2ccccc2)on1 [Example 344, (R)-N-[(2-fluoro-4-{3-[(pyrrolidin-3-yl)amino]-1H-pyrazolo[3,4-b]pyridin-4-yl}phenyl)methyl]-5-phenyl-1,2-oxazole-3-carboxamide]"
–,8.42,5.96,287,–,"CC(C)(C)c1nc(C(=O)NCc2ccc(-c3ccnc4[nH]nc(O[C@@H]5CCN(C=O)C5)c34)cc2F)no1 [Example 273, 5-tert-butyl-N-[(2-fluoro-4-{3-[(1-formylpyrrolidin-3-yl)oxy]-1H-pyrazolo[3,4-b]pyridin-4-yl}phenyl)methyl]-1,2,4-oxadiazole-3-carboxamide]"
–,6.03,< 5.00,>100,–,"CC(C)(O)c1ccc(C(=O)NCc2ccc(-c3ccnc4[nH]nc(N[C@H]5CC[C@H](O)CC5)c34)cc2F)cc1 [Compound 26, N-{[2-fluoro-4-(3-{[(1r,4r)-4-hydroxycyclohexyl]amino}-1H-pyrazolo[3,4-b]pyridin-4-yl)phenyl]methyl}-4-(2-hydroxypropan-2-yl)benzamide]"
